Experimental data taken from article PMC10222328 (Pharmaceuticals, 2023).

Target: T1, 5-LOX (Homo sapiens, UniProt P09917)
T1 construct: purchased Abcam, UK
T1 sequence (P09917 1-674): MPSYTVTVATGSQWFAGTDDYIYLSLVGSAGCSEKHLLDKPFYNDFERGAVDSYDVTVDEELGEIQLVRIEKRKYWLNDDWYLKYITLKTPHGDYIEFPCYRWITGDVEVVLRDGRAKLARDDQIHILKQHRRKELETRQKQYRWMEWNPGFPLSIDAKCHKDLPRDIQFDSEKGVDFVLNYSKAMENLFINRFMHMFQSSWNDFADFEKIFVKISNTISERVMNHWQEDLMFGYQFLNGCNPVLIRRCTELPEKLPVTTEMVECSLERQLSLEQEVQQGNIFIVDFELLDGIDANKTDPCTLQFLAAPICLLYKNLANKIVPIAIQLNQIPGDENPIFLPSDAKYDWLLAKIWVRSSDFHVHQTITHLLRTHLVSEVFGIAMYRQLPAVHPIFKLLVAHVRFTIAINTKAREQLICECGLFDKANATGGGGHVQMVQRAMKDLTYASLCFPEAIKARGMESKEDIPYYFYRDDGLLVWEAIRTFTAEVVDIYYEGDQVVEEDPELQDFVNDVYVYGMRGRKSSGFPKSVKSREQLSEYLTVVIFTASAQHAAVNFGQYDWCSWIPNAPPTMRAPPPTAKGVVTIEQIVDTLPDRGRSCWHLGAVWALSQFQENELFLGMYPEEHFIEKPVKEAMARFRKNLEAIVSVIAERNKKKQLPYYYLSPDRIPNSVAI
Experiment: Fluorometric 5-LOX inhibitor screening kit
Type: biochemical
Conditions: mean ± standard error of two measurements; for inhibition at 10 µM: read-out: 5-LOX Percent of Inhibition
Method: COX-2 and 5-LOX inhibitory activities were tested using fluorometric COX-2 and 5-LOX inhibitor screening kits (Abcam, UK). These assays are based on the fluorometric detection of Prostaglandin G2 (a product generated by the COX enzyme) or on the fluorometric detection of intermediate generated by the 5-LOX enzyme. The experiments were conducted according to the manufacturers’ instructions.
For the determination of COX-2 inhibitory activity, tested compounds were dissolved in DMSO (5 mM stock solutions) and then diluted with the same solvent to obtain test solutions. Test solutions were further diluted 5X with COX assay buffer (2 µL of test solution and 8 µL COX assay buffer). […] Solvent control (SC) was prepared by adding 2 µL DMSO and 8 µL COX assay buffer, while sample (S) and enzyme control (EC) were prepared by adding 10 µL of diluted test solution and COX assay buffer, respectively, into assigned wells. For the determination of 5-LOX inhibitory activity, tested compounds were also dissolved in DMSO to prepare stock solutions with the same concentration (5mM), which were then diluted with the same solvent to obtain test solutions. Subsequently, test solutions were added to corresponding wells (2 µL).

Compound: COc1ccc2cc([C@H](C)C(=O)NC(=S)Nc3ccc(F)cc3)ccc2c1 [Compound 1, (S)-N-((4-fluorophenyl)carbamothioyl)-2-(6-methoxynaphthalen-2-yl)propanamide]
- inhibition at 10 µM: 34.2 ± 1.04%
- IC50: 19.2 ± 0.96 µM

Compound: COc1ccc(NC(=S)NC(=O)[C@@H](C)c2ccc3cc(OC)ccc3c2)cc1 [Compound 2, (S)-2-(6-methoxynaphthalen-2-yl)-N-((4-methoxyphenyl)carbamothioyl)propanamide]
- inhibition at 10 µM: 25.1 ± 1.83%
- IC50: 39.8 ± 1.98 µM

Compound: CCOc1ccc(NC(=S)NC(=O)[C@@H](C)c2ccc3cc(OC)ccc3c2)cc1 [Compound 3, (S)-N-((4-ethoxyphenyl)carbamothioyl)-2-(6-methoxynaphthalen-2-yl)propanamide]
- inhibition at 10 µM: 47 ± 4.32%
- IC50: 9.52 ± 1.51 µM

Compound: COc1cccc(NC(=S)NC(=O)[C@@H](C)c2ccc3cc(OC)ccc3c2)c1 [Compound 4, (S)-2-(6-methoxynaphthalen-2-yl)-N-((3-methoxyphenyl)carbamothioyl)propanamide]
- inhibition at 10 µM: 77.2 ± 0.26%
- IC50: 0.3 ± 0.12 µM

Compound: COc1ccc2cc([C@H](C)C(=O)NC(=S)Nc3ccc(C(C)=O)cc3)ccc2c1 [Compound 5, (S)-N-((4-acetylphenyl)carbamothioyl)-2-(6-methoxynaphthalen-2-yl)propanamide]
- inhibition at 10 µM: 46.2 ± 4.87%
- IC50: 16.7 ± 1.79 µM

Compound: CCOC(=O)C(Cc1ccccc1)NC(=S)NC(=O)C(C)c1ccc2cc(OC)ccc2c1 [Compound 6, Ethyl(((S)-2-(6-methoxynaphthalen-2-yl)propanoyl)carbamothioyl)-L-phenylalaninate]
- inhibition at 10 µM: 23.6 ± 2.14%

Compound: COC(=O)[C@H](Cc1cn(C)c2ccccc12)NC(=S)NC(=O)[C@@H](C)c1ccc2cc(OC)ccc2c1 [Compound 7, Methyl-N^α-(((S)-2-(6-methoxynaphthalen-2-yl)propanoyl)carbamothioyl)-1-methyltryptophanate]
- inhibition at 10 µM: 20.7 ± 4.19%
